Measured values: US4560545A, “Basic aluminum magnesium carbonate” (Anphar S.A., priority 1978, dated 1985)
Like-named read-outs stand apart in the source and are kept apart here.

Experiments:
ulcers [1] = assay: 18 hour pyloric ligature: incidence of ulcers; assay type: in vivo; settings: rats, 18 hours ligature
ulcers [2] = assay: bile-sensitized stomach, ulcerogenic action of indomethacin; settings: rat stomach sensitized with bile, 31.25-125 mg/kg orally
Text: (§1) In a further series of experiments the detergent action of bile was used to sensitize the rat stomach to the ulcerogenic action of indomethacin.

pepsin = settings: rats, 4 hour ligature; for reduction of pepsin enzyme activity of gastric juice: at the higher doses
Text: as §1

[3] = 4 hour pyloric ligature of the stomach: pH and total acid content of stomach contents; settings: rats, 31.25-500 mg/kg orally 1 hour before sacrifice
Text: as §1

[4] = antacid activity in simulated gastric juice (modified Holbert technique, automatic titrator); assay type: physicochemical; settings: for Vol. of gastric juice added: added at 0.7 ml/min. until pH fell below 3; for pH of suspension after 1 min.: about 0.125 g powder in 20 ml, 37° C.
Procedure: Approximately 0.125 g of powder was added to 20 ml of simulated gastric juice (U.S.P.) and stirred vigorously at 37° C. The pH was registered at 1, 5 and 10 minutes and then the automatic burette was started and synthetic gastric juice was added at a rate of 0.7 ml/min. until the pH fell below 3. The time taken and the amount of gastric juice added to reach pH 3 was observed.

[5] = Procedure: The ability of compound I to absorb bile acids was measured at pH 7 and pH 4 (the analytical method was based on the reaction between sulphuric acid, furfural and cholic acid; Pettenkofer, Ann. Chem. Pharm. 52, 90, 1884). The product was suspended in the appropriate buffer and a solution of the bile acid or ox bile was added, samples being taken at intervals of time.
gastric acid secretion = settings: human volunteers, pentagastrin 6 μg/kg i.m., 1 g suspension 30 minutes later, versus aluminium hydroxide gel
Procedure: Gastric acid secretion was induced by injection of pentagastrin (6 μg/kg i.m.). Thirty minutes later a suspension of 1 g of compound I or aluminium hydroxide was given (2 groups of 6 volunteers, double blind parallel). Samples of gastric juice were taken before giving pentagastrin (basal level), 30 minutes after injection of pentagastrin and at intervals of 30, 60, 90 and 120 minutes after giving the antacids. In each case the pH, free acid content and pepsin content were measured.

[6] = pH stat, pH 4, suspension in water
[7] = gastric juice DP, double quantity of pepsin
[8] = gastric juice DP, with double quantity of pepsin
[9] = gastric juice N, normal U.S.P. simulated gastric juice
[10] = gastric juice SP, without pepsin

Compound	reduction of the incidence of ulcers (inhibition) (ulcers [2])	reduction of pepsin enzyme activity of gastric juice (pepsin)	effect on pH of the stomach contents [3]	reduction of total acid content [3]	Vol. of gastric juice added [4, 7] [mL]	pH of suspension after 1 min. [4, 8]	pH of suspension after 1 min. [4, 9]	Vol. of gastric juice added ([4]; gastric juice N, normal U.S.P.) [mL]	pH of suspension after 1 min. [4, 10]	Vol. of gastric juice added [4, 10] [mL]	other results
[OH][Al]([OH])[OH] [aluminium hydroxide, reference compound]	32%	without effect on the pepsin activity	much less influence on pH	12%							reduction in ulceration (ulcers [1]; 125 mg/kg): 43%
Magaldrate U.S.P. [F2]					2.40	2.65	1.95	1.70	1.40	1.92	
basic aluminium magnesium carbonate [compound I]	up to 54%	78.9%	dose dependent increases in the pH of the stomach contents	up to 85%	22.36	4.55	4.25	21.2	4.00	10.9	buffering capacity ([4]; U.S.P. simulated gastric juice): highest buffering capacity; velocity of neutralisation ([4]; pH after 1 minute in the optimal zone, pH 3-5): high velocity of neutralisation; ability to absorb acid in the presence of pepsin ([4]; simulated gastric juice with pepsin versus without): increased ability to absorb acid in the presence of pepsin; Percentage absorption of bile acids ([5]; Cholic Acid, Buffer pH 4, 1 hr): 80.5 Percentage; Percentage absorption of bile acids ([5]; Cholic Acid, Buffer pH 4, 3 hr): 86.3 Percentage; Percentage absorption of bile acids ([5]; Cholic Acid, Buffer pH 7, 1 hr): 0 Percentage; Percentage absorption of bile acids ([5]; Cholic Acid, Buffer pH 7, 3 hr): 12 Percentage; Percentage absorption of bile acids ([5]; Ox bile, Buffer pH 4, 1 hr): 69.0 Percentage; Percentage absorption of bile acids ([5]; Ox bile, Buffer pH 4, 3 hr): 70.0 Percentage; Percentage absorption of bile acids ([5]; Ox bile, Buffer pH 7, 1 hr): 17.3 Percentage; Percentage absorption of bile acids ([5]; Ox bile, Buffer pH 7, 3 hr): 25.8 Percentage; Percentage absorption of bile acids ([5]; Taurocholic acid, Buffer pH 4, 1 hr): 65.4 Percentage; Percentage absorption of bile acids ([5]; Taurocholic acid, Buffer pH 4, 3 hr): 71.7 Percentage; Percentage absorption of bile acids ([5]; Taurocholic acid, Buffer pH 7, 1 hr): 0.6 Percentage; Percentage absorption of bile acids ([5]; Taurocholic acid, Buffer pH 7, 3 hr): 20.8 Percentage; reduction in the incidence of ulcers compared with placebo treated controls (ulcers [1]; 31.25 mg/kg orally at the same time as the operation): 58%; antipepsin effect (pepsin content of gastric juice) (gastric acid secretion): greater antipepsin effect; reduction of free hydrochloric acid levels in gastric juice (gastric acid secretion): reduced the free hydrochloric acid levels more rapidly and had a longer duration of action than aluminium hydroxide gel; acid-binding capacity [6]: higher at pH 4 than any of the other substances; reduction of pepsin enzyme activity, pH of the gastric juice readjusted to 2 (pepsin; higher doses, pH readjusted to 2 (optimal for pepsin activity)): 32.5%
dry aluminium hydroxide gel U.S.P. [F1]					4.80	2.79	2.93	7.40	3.30	17.43	
